The experiment concerns Jurkat IL-2 Production. The experiment in a line: Jurkat IL-2 Production Assay. It is filed as cell-based. The settings on record: Homo sapiens, Jurkat cell (ATCC), 18-20 h incubation, PHA 5 μg/mL with 1% FBS, or PMA/Ionomycin with 30% FBS (table does not say which). The method, boiled down: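 Jurkat cells were exposed to compound (0.25% DMSO final) for 10 min, then stimulated for 18–20 h at 37 °C. The 1% FBS condition used 5 μg/mL PHA; the high-serum condition (30% FBS) used 50 ng/mL PMA plus 500 ng/mL ionomycin. IC50 was derived from IL-2 production.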

As usually defined, the IC50 is the concentration that inhibits the measured activity by half. The low end stands for greater potency in that assay, the high end for weaker potency in that assay. Take `Cc1ccc(-c2nc(-c3ccc4[nH]c(-c5c(F)cccc5Cl)cc4c3)c(C)s2)cn1` [Example 178, 2-(2-Chloro-6-fluoro-phenyl)-5-[5-methyl-2-(6-methyl-pyridin-3-yl)-thiazol-4-yl]-1H-indole]: the IC50 was found to be 59 nM.
The compound `CCc1sc(-c2cnccn2)nc1-c1ccc2[nH]c(-c3c(F)cccc3Cl)cc2c1` [Example 179, 2-(2-Chloro-6-fluoro-phenyl)-5-(5-ethyl-2-pyrazin-2-yl-thiazol-4-yl)-1H-indole] registered an IC50 of 23 nM.
`CC(C)c1sc(-c2cccnc2)nc1-c1ccc2[nH]c(-c3c(F)cccc3Cl)cc2c1` [Example 180, 2-(2-Chloro-6-fluoro-phenyl)-5-(5-isopropyl-2-pyridin-3-yl-thiazol-4-yl)-1H-indole] showed a 50% inhibitory concentration (IC50) of 28 nM.
For `CC(C)c1sc(-c2cnccn2)nc1-c1ccc2[nH]c(-c3c(F)cccc3Cl)cc2c1` [Example 181, 2-(2-Chloro-6-fluoro-phenyl)-5-(5-isopropyl-2-pyrazin-2-yl-thiazol-4-yl)-1H-indole], the IC50 came to 56 nM.
In the case of `CC(c1sc(-c2cccnc2)nc1-c1ccc2[nH]c(-c3c(F)cccc3Cl)cc2c1)C(F)(F)F` (stereo not drawn) [Example 182, 2-(2-chloro-6-fluoro-phenyl)-5-[2-pyridin-3-yl-5-(2,2,2-trifluoro-1-methyl-ethyl)-thiazol-4-yl]-1H-indole], the IC50 worked out at 142 nM. This IC50 is about 2.5-fold higher than that of the compound before.
`CCn1nc(-c2cnccn2)cc1-c1ccc2[nH]c(-c3c(F)cccc3Cl)cc2c1` [Example 183, 2-(2-chloro-6-fluorophenyl)-5-(1-ethyl-3-(pyrazin-2-yl)-1H-pyrazol-5-yl)-1H-indole] gave a 50% inhibitory concentration (IC50) of 28 nM.
In turn, `Cn1nc(-c2ccccn2)nc1-c1ccc2[nH]c(-c3c(F)cccc3Cl)cc2c1` [Example 184, 2-(2-Chloro-6-fluoro-phenyl)-5-(2-methyl-5-pyridin-2-yl-2H-[1,2,4]-triazol-3-yl)-1H-indole] registered an IC50 of 148 nM.
The result for `CCn1nc(-c2cccnc2)nc1-c1ccc2[nH]c(-c3ccccc3Cl)cc2c1` [Example 185, 2-(2-Chloro-phenyl)-5-(2-ethyl-5-pyridin-3-yl-2H-[1,2,4]-triazol-3-yl)-1H-indole] reads 65 nM.
`CCn1nc(-c2cccnc2)nc1-c1ccc2[nH]c(-c3c(Cl)cccc3Cl)cc2c1` [Example 186, 2-(2,6-Dichloro-phenyl)-5-(2-ethyl-5-pyridin-3-yl-2H-[1,2,4]triazol-3-yl)-1H-indole] registered an IC50 of 34 nM.
`CCn1nc(-c2cnccn2)nc1-c1ccc2[nH]c(-c3c(F)cccc3Cl)cc2c1` [Example 187, 2-(2-Chloro-6-fluoro-phenyl)-5-(2-ethyl-5-pyrazin-2-yl-2H-[1,2,4]triazol-3-yl)-1H-indole] registered a concentration for half-maximal inhibition (IC50) of 69 nM.
In the case of `Cn1nc(-c2cncnc2)nc1-c1ccc2[nH]c(-c3c(F)cccc3Cl)cc2c1` [Example 188, 2-(2-Chloro-6-fluoro-phenyl)-5-(2-methyl-5-pyrimidin-5-yl-2H-[1,2,4]triazol-3-yl)-1H-indole] it was 44 nM; in that of `CCn1nc(C(F)(F)F)cc1-c1ccc2[nH]c(-c3ccncc3C)cc2c1` [Example 189, 5-(1-ethyl-3-(trifluoromethyl)-1H-pyrazol-5-yl)-2-(3-methylpyridin-4-yl)-1H-indole], 76 nM; in that of `CCn1nc(C(F)(F)F)cc1-c1ccc2[nH]c(-c3cnc(OC)cc3C)cc2c1` [Example 190, 5-(1-ethyl-3-(trifluoromethyl)-1H-pyrazol-5-yl)-2-(6-methoxy-4-methylpyridin-3-yl)-1H-indole], 111 nM.
The compound `CCn1nc(C(F)(F)F)cc1-c1ccc2[nH]c(-c3cnccc3C)cc2c1` [Example 191, 5-(1-ethyl-3-(trifluoromethyl)-1H-pyrazol-5-yl)-2-(4-methylpyridin-3-yl)-1H-indole] showed an IC50 of 67 nM.
`CCn1nc(C(F)(F)F)cc1-c1ccc2[nH]c(-c3ccncc3F)cc2c1` [Example 192, 5-(1-ethyl-3-(trifluoromethyl)-1H-pyrazol-5-yl)-2-(3-fluoropyridin-4-yl)-1H-indole] came in with an IC50 of 149 nM. This IC50 lies about 2.2-fold higher than the previous one.
In the case of `CCn1nc(C(F)(F)F)cc1-c1ccc2[nH]c(-c3ccc(OC)nc3C)cc2c1` [Example 193, 5-(1-ethyl-3-(trifluoromethyl)-1H-pyrazol-5-yl)-2-(6-methoxy-2-methylpyridin-3-yl)-1H-indole] it was 129 nM.
The result for `CCn1nc(C(F)(F)F)cc1-c1ccc2[nH]c(-c3ccnc(OC)c3Cl)cc2c1` [Example 194, 2-(3-chloro-2-methoxypyridin-4-yl)-5-(1-ethyl-3-(trifluoromethyl)-1H-pyrazol-5-yl)-1H-indole] reads 139 nM.
The result for `CCn1nc(C(F)(F)F)cc1-c1ccc2[nH]c(C3=CCCCC3)cc2c1` [Example 195, 2-cyclohexenyl-5-[1-ethyl-3-{trifluoromethyl}-1H-pyrazol-5-yl]-1H-indole] reads 782 nM; that for `CCn1nc(C(F)(F)F)cc1-c1ccc2[nH]c(C3CCCCC3)cc2c1` [Example 196, 2-cyclohexyl-5-(1-ethyl-3-(trifluoromethyl)-1H-pyrazol-5-yl)-1H-indole], 24 nM; that for `CCn1nc(C(F)(F)F)cc1-c1ccc2c(c1)CC(C1CCCCC1)N2` (stereo not drawn) [Example 197], 110 nM.
Compound `CCn1nc(C(F)(F)F)cc1-c1ccc2[nH]c(C3CCOCC3)cc2c1` [Example 198, 5-(1-ethyl-3-(trifluoromethyl)-1H-pyrazol-5-yl)-2-(tetrahydro-2H-pyran-4-yl)-1H-indole] showed a half-inhibitory concentration (IC50) of 95 nM.
In the case of `CCn1nc(C(F)(F)F)cc1-c1ccc2[nH]c(C3CCCOC3)cc2c1` (stereo not drawn) [Example 199, 5-(1-ethyl-3-(trifluoromethyl)-1H-pyrazol-5-yl)-2-(tetrahydro-2H-pyran-3-yl)-1H-indole] it was 86 nM; in that of `CCn1nc(C(F)(F)F)cc1-c1ccc2[nH]c(C3CCN(C(C)=O)CC3)cc2c1` [Example 200, 1-(4-(5-(1-ethyl-3-(trifluoromethyl)-1H-pyrazol-5-yl)-1H-indol-2-yl)piperidin-1-yl)ethanone], 220 nM.
For `COc1cc(F)c(-c2cc3cc(-c4cc(C(F)(F)F)nn4C)ccc3[nH]2)c(Cl)c1` [Example 201, 2-(2-chloro-6-fluoro-4-methoxyphenyl)-5-(1-methyl-3-(trifluoromethyl)-1H-pyrazol-5-yl)-1H-indole], the IC50 came to 35 nM. This IC50 is about 6.3-fold lower than that of the compound before.
The result for `COc1cc(F)c(-c2cc3cc(-c4ccc(C#N)cc4C)ccc3[nH]2)c(Cl)c1` [Example 202, 4-(2-(2-chloro-6-fluoro-4-methoxyphenyl)-1H-indol-5-yl)-3-methylbenzonitrile] reads 57 nM; that for `CCn1nc(C(F)(F)F)cc1-c1ccc2[nH]c(-c3c(F)cc(OC)cc3Cl)cc2c1` [Example 203, 2-(2-chloro-6-fluoro-4-methoxyphenyl)-5-(1-ethyl-3-(trifluoromethyl)-1H-pyrazol-5-yl)-1H-indole], 31 nM; that for `CCn1nc(-c2cnccn2)cc1-c1ccc2[nH]c(-c3c(F)cccc3F)cc2c1` [Example 204, 2-(2,6-difluorophenyl)-5-(1-ethyl-3-(pyrazin-2-yl)-1H-pyrazol-5-yl)-1H-indole], 63 nM.
In the case of `CCn1nc(-c2cccnc2)nc1-c1ccc2[nH]c(-c3c(F)cccc3F)cc2c1` [Example 205, 2-(2,6-Difluoro-phenyl)-5-(2-ethyl-5-pyridin-3-yl-2H-[1,2,4]triazol-3-yl)-1H-indole], the concentration for half-maximal inhibition (IC50) came out at 24 nM. This IC50 is about 2.6-fold lower than that of the compound before.
In the case of `Cc1sc(-c2cnccn2)nc1-c1ccc2[nH]c(-c3c(F)cccc3F)cc2c1` [Example 206, 2-(2,6-Difluoro-phenyl)-5-(5-methyl-2-pyrazin-2-yl-thiazol-4-yl)-1H-indole] it was 51 nM; in that of `CCc1sc(-c2cccnc2)nc1-c1ccc2[nH]c(-c3c(F)cccc3F)cc2c1` [Example 207, 2-(2,6-Difluoro-phenyl)-5-(5-ethyl-2-pyridin-3-yl-thiazol-4-yl)-1H-indole], 26 nM; in that of `Cc1cc(-c2ncco2)ncc1-c1ccc2[nH]c(-c3c(F)cccc3F)cc2c1` [Example 208, 2-(2,6-Difluoro-phenyl)-5-(4-methyl-6-oxazol-2-yl-pyridin-3-yl)-1H-indole], 97 nM.
`Cc1cc(-c2cnc(N)nc2)ncc1-c1ccc2[nH]c(-c3c(F)cccc3F)cc2c1` [Example 209, 5-{5-[2-(2,6-Difluoro-phenyl)-1H-indol-5-yl]-4-methyl-pyridin-2-yl}-pyrimidin-2-ylamine] came in with an IC50 of 54 nM. Compared with the last compound, the IC50 is about 1.8-fold lower.
In the case of `Cc1cc(-c2cncnc2)ncc1-c1ccc2[nH]c(-c3c(F)cccc3F)cc2c1` [Example 210, 2-(2,6-Difluoro-phenyl)-5-(4-methyl-6-pyrimidin-5-yl-pyridin-3-yl)-1H-indole] it was 60 nM.
Take `CCn1nc(-c2cnccn2)cc1-c1ccc2[nH]c(-c3cnccc3C)cc2c1` [Example 211, 5-(2-Ethyl-5-pyrazin-2-yl-2H-pyrazo-1-3-yl)-2-(4-methyl-pyridin-3-yl)-1H-indole]: it took 124 nM to reach half-maximal inhibition (IC50). Compared with the last compound, the IC50 is about 2.1-fold higher.
The result for `Cc1cc(C#N)ncc1-c1ccc2[nH]c(-c3cnccc3C)cc2c1` [Example 212, 4-Methyl-5-[2-(4-methyl-pyridin-3-yl)-1H-indol-5-yl]-pyridine-2-carbonitrile] reads 447 nM; that for `COc1cc(C#N)ccc1-c1ccc2[nH]c(-c3cnccc3C)cc2c1` [Example 213], 105 nM; that for `Cc1cc(S(C)(=O)=O)ncc1-c1ccc2[nH]c(-c3cnccc3C)cc2c1` [Example 214, 5-(6-Methanesulfonyl-4-methyl-pyridin-3-yl)-2-(4-methyl-pyridin-3-yl)1indole], 41 nM.
The result for `Cc1cc(Cl)ncc1-c1ccc2[nH]c(-c3cnccc3C)cc2c1` [Example 215, 5-(6-Chloro-4-methyl-pyridin-3-yl)-2-(4-methyl-pyridin-3-yl)-1H-indole] reads 235 nM; that for `COc1cc(C)c(-c2ccc3[nH]c(-c4cnccc4C)cc3c2)cn1` [Example 216, 5-(6-Methoxy-4-methyl-pyridin-3-yl)-2-(4-methyl-pyridin-3-yl)-1H-indole], 110 nM.

(Values after patent US20110071150A1 (priority 2009, published 2011).)
